Like-named read-outs stand apart in the source and are kept apart here.
What was measured:
HaVg1 gene expression = conditions: hepatopancreas explant, cited from earlier work
gonad maturation = assay: Example 2: FA injection into female shrimp, gonadosomatic index; format: in vivo; conditions: FA 1 μg/g of body weight, day 6
Protocol: Farnesoic acid (FA) is known to be able to stimulate vitellogenin synthesis in crab, shrimp and lobster. Stock of FA is prepared in ultra-pure mineral oil and female shrimp will be injected with FA.
Fifty female shrimp are injected with FA through the arthropodial membrane (e.g. at 1 μg/g of body weight) 1 day after they molt. After injection, the shrimp is returned to the culture tank for culture. A group of 10 shrimps are randomly selected at a 24-hour interval. 50 μl of hemolymph sample will be taken from the shrimps for analyzing the vitellogenin level by ELISA. On day 6, all the shrimps will be sacrificed and their ovary will be weighted for estimating the gonadosomatic index (GSI), which is the ratio of ovary weight to total body weight. A control group is also setup in which the shrimps are injected with the same volume of mineral oil without any FA. Shrimps injected with FA should have a higher ovary weight to total shrimp weight than the control.

[1] = test system: expression of vitellogenin; conditions: red crab; cited from earlier work

SMILES	increase in HaVg1 gene expression (HaVg1 gene expression; 0.7 μM 20E) [fold]	ovary weight to total shrimp weight (GSI) versus control (gonad maturation)	increase in HaVg1 gene expression (HaVg1 gene expression; 4.2 μM FA) [fold]	expression of vitellogenin [1]
CC(C)(O)CC[C@@H](O)[C@](C)(O)[C@H]1CC[C@@]2(O)C3=CC(=O)[C@@H]4C[C@@H](O)[C@@H](O)C[C@]4(C)[C@H]3CC[C@]12C [20E, 20-hydroxyecdysone]	2.2			
CC(C)=CCCC(C)=CCCC(C)=CC(=O)O [FA, farnesoic acid]		higher	2	stimulate

— patent US20160346356A1, “USE OF RNA INTERFERENCE, FARNESOIC ACID AND RECOMBINANT PROTEIN APPROACH TO INDUCE GONAD MATURATION IN CRUSTACEAN SPECIES” (priority 2013, published 2016)
